Test results taken from patent publication US8383608B2, “Imidazolidine compounds as androgen receptor modulators” (Dart Therapeutics LLC, priority 2008, dated 2013).
Like-named read-outs stand apart in the source and are kept apart here.

Columns and labels:
[1] = target: T1, human androgen receptor (hAR) (Homo sapiens, UniProt P10275); test: Functional response (transactivation) test in HALP2 cells (HeLa stably expressing hAR and ARE-luciferase reporter); type: cell-based; conditions: for Emax: HeLa, read-out: % effect relative to DHT (100%)
T1 construct: expressed in transfected cells
T1 sequence (P10275 1-920): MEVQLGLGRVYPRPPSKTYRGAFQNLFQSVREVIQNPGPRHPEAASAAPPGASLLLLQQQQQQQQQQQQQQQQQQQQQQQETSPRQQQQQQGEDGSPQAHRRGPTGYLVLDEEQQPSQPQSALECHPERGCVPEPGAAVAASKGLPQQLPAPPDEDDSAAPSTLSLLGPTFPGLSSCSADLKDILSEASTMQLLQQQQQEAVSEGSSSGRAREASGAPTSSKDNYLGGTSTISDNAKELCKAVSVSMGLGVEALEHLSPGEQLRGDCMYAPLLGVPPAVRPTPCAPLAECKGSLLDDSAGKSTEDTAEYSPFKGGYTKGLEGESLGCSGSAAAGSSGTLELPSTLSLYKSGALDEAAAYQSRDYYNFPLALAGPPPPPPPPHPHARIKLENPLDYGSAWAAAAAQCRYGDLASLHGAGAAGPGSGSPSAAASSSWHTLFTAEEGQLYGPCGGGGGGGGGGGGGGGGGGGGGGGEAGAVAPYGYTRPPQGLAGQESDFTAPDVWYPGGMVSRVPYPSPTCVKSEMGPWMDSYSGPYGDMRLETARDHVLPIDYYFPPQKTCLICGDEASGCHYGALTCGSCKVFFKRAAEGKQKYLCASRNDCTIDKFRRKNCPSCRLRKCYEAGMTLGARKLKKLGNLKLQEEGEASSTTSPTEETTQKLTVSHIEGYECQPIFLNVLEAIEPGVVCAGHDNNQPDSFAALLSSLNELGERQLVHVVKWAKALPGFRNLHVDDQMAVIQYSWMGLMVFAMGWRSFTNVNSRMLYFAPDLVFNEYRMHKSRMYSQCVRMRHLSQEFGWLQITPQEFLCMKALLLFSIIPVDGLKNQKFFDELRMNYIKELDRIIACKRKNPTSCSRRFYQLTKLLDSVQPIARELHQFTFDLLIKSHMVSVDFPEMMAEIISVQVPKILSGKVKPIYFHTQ
Description: This test constitutes a method of identifying pure or partial agonists which mimic the effects of natural hormones, such as DHT (dihydrotestosterone) in the present case or, on the other hand, antagonists which inhibit them.
For this transactivation test, plasmids encoding a reporter gene and the human androgen receptor (hAR) are introduced together by transfection into the HeLa cell line. The reporter plasmid contains luciferase cDNA under the control of the AREs contained in the promoter sequences of the probasin gene (3xpbAREminicoll-luciferase/pGL3-puro). The expression of the reporter gene constitutes an indication of the transcriptional activity of hAR. It also encodes a protein allowing the cells expressing it to resist a treatment with puromycin. The plasmid encoding hAR contains the cDNA of hAR under the control of the Cytomegalovirus (CMV) promoter. It also encodes a protein allowing the cells expressing it to resist a treatment with neomycin. The treatment of cells with increasing amounts of potentially agonistic compounds will increase the expression of the reporter gene. To detect antagonists, on the other hand, increasing doses of test compounds are tested in the presence of […] of DHT. The expression of the reporter gene, which is constant for each dose of DHT, decreases when the concentration of the test compounds increases.
The functional response test is conducted on 96-well plates. The HALP2 cells are seeded (20,000 cells per well) in culture medium (DMEM with phenol red, 1% de Pen-Strep, 1% of non-essential amino acids, 10% of fetal bovine serum, 400 μg/mL Geneticin and 0.150 puromycin) on day 1. After 24 hours incubating at 37° C., 5% CO2, high humidity (day 2) the medium is removed and refreshed with test medium (DMEM without phenol red supplemented, 1% de Pen-Strep, 1% of non-essential amino acids and 5% of desteroidised foetal bovine serum). After another 24 hours incubating at 37° C., 5% CO2, high humidity (day 3), the medium is renewed once more before the phase of stimulation.
The cells are placed in contact with the compounds for 24 hours at 37° C., 5% CO2, high humidity. On day 4 the medium is then removed and the luciferase activity reading reagent is placed in contact with the cells in accordance with the manufacturer's instructions (SteadyLite, Perkin-Elmer). The luminescence produced is detected on an Envision reader (Perkin-Elmer). […]
The determination of the relative agonism/antagonism of a compound is obtained by comparing the maximal activation obtained with said compound and the activation obtained with DHT alone (100%).

[2] = Determination of absolute bioavailability (restricted PK profile, oral and intravenous); type: in vivo; conditions: absolute bioavailability (F), male Sprague Dawley rats, oral 10 mg/kg AUC(0-6 h) vs intravenous 3 mg/kg AUC(0-3 h)
Description: To screen rapidly imidazolidines derivatives based on their absolute bioavailabity, restricted pharmacokinetic profile with only fours sampling time points after oral and intravenous route is investigated in Sprague Dawley rats as follows: each test compound is dosed orally (10 mg/kg) and intravenously (3 mg/kg) to groups of 3 male Sprague Dawley rats. Oral doses are administered as solution in EtOH/PEG400/H2O (1/79/20; v/v) by esophageal gavage (2 mg/mL; 5 mL/kg) and intravenous dose is given as solution in DMSO/PEG400/H2O (1/65/34; v/v) as a bolus in the tail vein (3 mg/mL; 1 mL/kg). Before oral dosing, animals are deprived of food (water ad libitum) for at least 16 hours before the start of the study and 6 hours after administration.
Blood is collected at the retro-orbital sinus into polypropylene tubes (Li-heparinate) at +4° C. at the following sampling-times: 0.083, 0.25, 1 and 3 h after intravenous injection and 0.25, 1, 3 and 6 hours after oral dosing. Three (3) animals are sampled per time-point; each animal being sampled four times. After centrifugation at 5000 rpm for 10 min at +4° C., plasma is collected into polypropylene tubes and kept frozen at −20° C. pending assays. Plasma samples are assayed by a LC-MS/MS method with a lower limit of quantification of 1 to 10 ng/mL depending on the compound (volume of plasma: 100 μL).
A LC-MS/MS method for quantification in heparinized plasma was developed for each test compound. Sample preparation consists of a precipitation of plasma proteins with methanol and filtration by centrifugation of supernatant on Captiva deep-well 96 0.2 μm filter plates. Water was added to methanol supernatant phase prior to analysis by liquid chromatography (Pursuit 5 C18 20×2.0 mm VARIAN, 2 μL loop, gradient Water/Methanol (90/10 to 0/100) over 1.7 min) with turboionspray tandem mass spectrometry (API4000) in negative mode using multiple reaction monitoring. The method includes 8 standard and 3 quality control levels with lower limit of quantification corresponding to first standard level.
Exposures are determined using a non compartmental model (WinNonLin 2.1) and the absolute bioavailability (F) is calculated as follows: [AUC(0-6 h) oral*3 mg/kg]/AUC(0-3 h) IV 10 mg/kg] and expressed in percentage.

[3] = test system: castrated immature young rats; test: Adapted model of Hershberger's test; type: in vivo, Sprague Dawley rats; conditions: Rattus norvegicus, po, 96 h, ORX control = 0%, SHAM control = 100%, per os daily for 4 days, dose tested 10 mg/kg
Description: The selective modulating activity of the androgen receptor is tested in a model of castrated immature young rats. This model, which is widely recognised for evaluating the anabolic effects of androgen compounds on the muscles and on the prostate, has been described by Hershberger et al. 1953 Proc. Soc. Expt. Biol. Med. 83:175.
The method is based on the measurement of the well-known effects of androgens on the growth of the muscles and the accessory male sex organs in animals, and also in men. The consequences of castration appear in the form of a rapid involution and atrophy of the prostate and the seminal vesicles and of the anus-lifting muscle (levator ani). This effect may be completely compensated by an exogeneous administration of androgen, in particular of testosterone. The model is thus used to determine the capacity of the tested molecules to maintain the weight of the accessory sex and muscle organs in immature castrated rats, and therefore their androgenic efficacy.
Immature young Sprague Dawley rats (4 to 5 weeks old) weighing approximately 140-160 g (Charles River, Les Oncins, FRANCE) are distributed randomly in various groups and are kept in an environment at 22±2° C. with an alternating day/night cycle of 12 hours and ad libitum access to food and drink.
On day 0 (seven days before commencement of the first treatment) the rats are weighed individually then anaesthetised with an intraperitoneal dose of Ketamine/xylazine (85/15 mg/kg, approximately 2 ml/kg). Each animal is then placed on a sterile field and the abdomen and the scrotum are disinfected with Betadine and 70% alcohol. In the case of the orchidectomised control animals (ORX), the testicles are removed via an incision in the middle of the scrotum. A sterile suture is then made to ligature the supra-testicular portion of the tissue prior to surgical section of each testicle. The groups of animals to be treated by the tested compounds are operated on in an identical manner. In the case of the intact control animals (SHAM), the testicles are similarly extracted and reintroduced delicately to their original location. The site of surgical intervention is then sutured using sterile suture thread, and the site is disinfected again by application of Betadine. Each animal is then kept under a sterile pad until it awoke, before being returned to its cage. The animals are kept in an environment at 22±2° C. with an alternating day/night cycle of 12 hours and ad libitum access to food and drink. The animals are treated with the molecules to be tested from post-surgery day 7 and until day 10 preceding sacrifice (day 11).
The rats are split into groups and treated daily from day 7 to day 10 under the conditions defined below: • 1. SHAM control group: Vehicle (PEG400/DMSO/water; 79/1/20) administered per os. • 2. ORX control group: Vehicle (PEG400/DMSO/water; 79/1/20) administered per os. • 3. Treated ORX group: The tested compounds are administered individually per os in suspension in the vehicle described above, in a dose of 10 mg/kg.
After treatment for 4 successive days, the animals are decapitated using a guillotine. The levator ani and the ventral prostate are removed and weighed individually. For comparing inter-experimental data, the weight of each organ is standardised and expressed in milligrammes per 100 g of the weight of the animal (W). For each organ, the average of the standardised weights of the ORX control group is fixed by definition at 0% and the average of the standardised weights of the SHAM control group is fixed by definition at 100%. The efficacy of each product is expressed as a percentage and calculated using the following formula: (Wtreated−WORX)/(WSHAM−WORX)×100
A subsequent ANOVA test is used for statistical analysis to identify the differences between groups.

[4] = maximal activation by the compound compared with DHT alone (100%), HALP2 cells
[5] = agonism: concentration inducing 50% of the maximum agonistic effect of the tested compound, HALP2 cells, 24 hours, read-out: EC50
[6] = male, Sprague-Dawley, rat, plasma, po, 10 mg/kg, read-out: Bioavailability
[7] = levator ani weight, read-out: Anabolic activity %
[8] = ventral prostate weight, read-out: Androgenic activity % (Prostate)

## CC(O)C1(c2ccccc2)C(=O)N(c2ccc(C#N)c(C(F)(F)F)c2)C(=O)N1C (single isomer, unassigned) [Example 5, 4-[2,5-Dioxo-4-(1-hydroxyethyl)-3-methyl-4-phenylimidazolidin-1-yl]-2-trifluoromethylbenzonitrile]
[1]; [4]
  % effect relative to DHT (100%): § (0-5%)
[2]
  bioavailability: ### (>90%:)

## CC(O)C1(c2ccccc2)C(=O)N(c2ccc(C#N)c(C(F)(F)F)c2)C(=O)N1C (single isomer, unassigned) [Example 4, 4-[2,5-Dioxo-4-(1-hydroxyethyl)-3-methyl-4-phenylimidazolidin-1-yl]-2-trifluoromethylbenzonitrile]
[1]; [4]
  Emax: 0 to 5%
[2]
  bioavailability: # (0-49%)

## CN1C(=O)N(c2ccc(C#N)c(C(F)(F)F)c2)C(=O)C1(CO)c1ccccc1 (stereo not shown) [Example 1, 4-[2,5-Dioxo-4-(hydroxymethyl)-3-methyl-4-phenylimidazolidin-1-yl]-2-trifluoromethylbenzonitrile]
[1]; [4]
  Emax: 21 to 40%
[1]; [5]
  EC50: 0.01 to 10 nM
[2]; [6]
  bioavailability: 50 to 90%

## C#CCN1C(=O)N(c2ccc(C#N)c(C(F)(F)F)c2)C(=O)C1(CO)c1ccc(F)cc1 (stereo not shown) [Example 8, 4-[2,5-Dioxo-4-(4-fluorophenyl)-4-hydroxymethyl-3-(2-propynyl)imidazolidin-1-yl]-2-trifluoromethylbenzonitrile]
[1]
  EC50: 101 to 500 nM
  Emax: 6 to 20%
[2]; [6]
  bioavailability: > 90%

## CCC(O)C1(c2ccccc2)C(=O)N(c2ccc(C#N)c(C(F)(F)F)c2)C(=O)N1C (single isomer, unassigned) [Example 3, 4-[2,5-Dioxo-4-(1-hydroxypropyl)-3-methyl-4-phenylimidazolidin-1-yl]-2-trifluoromethylbenzonitrile]
[2]; [6]
  bioavailability: 50 to 90%

## CC(C)N1C(=O)N(c2ccc(C#N)c(C(F)(F)F)c2)C(=O)C1(CO)c1ccccc1 (stereo not shown) [Example 17, 4-[2,5-Dioxo-4-(hydroxymethyl)-3-(1-methylethyl)-4-phenylimidazolidin-1-yl]-2-trifluoromethylbenzonitrile]
[1]; [4]
  Emax: 41 to 50%
[1]; [5]
  EC50: 101 to 500 nM
[3]; [7]
  response vs control in vivo at 10 mg/kg: 75 to 100%
[3]; [8]
  response vs control in vivo at 10 mg/kg: 50 to 75%

## CN1C(=O)N(c2ccc(C#N)c(C(F)(F)F)c2)C(=O)C1(CO)c1cccc(Cl)c1 (stereo not shown) [Example 9]
[1]; [4]
  Emax: 41 to 50%
[1]; [5]
  EC50: 0.01 to 10 nM
[3]; [7]
  response vs control in vivo at 10 mg/kg: 50 to 75%
[3]; [8]
  response vs control in vivo at 10 mg/kg: 0.5 to 25%
